According to PubChem BioAssay (NCI):
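Briefly, cells in 96-well plates were exposed to five compound concentrations for 48 h, and endpoints were estimated by linear interpolation. GI50 is the concentration that inhibits growth by half. TGI: concentration producing complete growth inhibition.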 Where a SMILES comes first, the peptide text is derived from it. [ ]: non-standard residue; d: D form. The star is where a group is joined. X28 = COC1=CC(=O)N(C(=O)[C@@H](O*)C(C)C)[C@H]1Cc1ccccc1; Bn2Val = CC(C)[C@@H](C(=O)*)N(Cc1ccccc1)Cc1ccccc1; NMeV = CN[C@H](C(=O)O)C(C)C; dNMeA = CN[C@H](C)C(=O)O

Tests used:
Assay in all cases: NCI tumour cell line growth inhibition, 48 h
OVCAR-5 ovarian = system: OVCAR-5 ovarian
RXF 393 renal = system: RXF 393 renal
SF-295 CNS = system: SF-295 CNS
SK-MEL-28 melanoma = system: SK-MEL-28 melanoma
UO-31 renal = system: UO-31 renal
NCI/ADR-RES ovarian = system: NCI/ADR-RES ovarian
MOLT-4 leukemia = system: MOLT-4 leukemia
786-0 renal = system: 786-0 renal
OVCAR-4 ovarian = system: OVCAR-4 ovarian
U251 CNS = system: U251 CNS

| Compound | GI50 (OVCAR-5 ovarian) [µM] | TGI (OVCAR-5 ovarian) [µM] | GI50 (RXF 393 renal) [µM] | TGI (RXF 393 renal) [µM] | GI50 (SF-295 CNS) [µM] | TGI (SF-295 CNS) [µM] | GI50 (SK-MEL-28 melanoma) [µM] | TGI (SK-MEL-28 melanoma) [µM] | GI50 (UO-31 renal) [µM] | TGI (UO-31 renal) [µM] | TGI (NCI/ADR-RES ovarian) [µM] | TGI (MOLT-4 leukemia) [µM] | TGI (786-0 renal) [µM] | TGI (OVCAR-4 ovarian) [µM] | TGI (U251 CNS) [µM] | GI50 (NCI/ADR-RES ovarian) [µM] | GI50 (MOLT-4 leukemia) [µM] | GI50 (OVCAR-4 ovarian) [µM] | GI50 (U251 CNS) [µM] |
| --- | --- | --- | --- | --- | --- | --- | --- | --- | --- | --- | --- | --- | --- | --- | --- | --- | --- | --- | --- |
| Fc1ccc2[nH]cc(-c3nc(-c4c[nH]c5ccncc45)cs3)c2c1 | 1.93 | 3.38 | 1.48 | 2.86 | 1.68 | 3.1 | 1.9 | 3.33 | 1.33 | 2.61 | – | – | – | – | – | – | – | – | – |
| Cc1ccc2n(c1)cc(-c1ccc(/C=N/NC(=N)N/N=C/c3ccc(-c4cn5cc(C)ccc5[n+]4C)cc3)cc1)[n+]2C | – | > 100 | – | – | – | > 100 | – | 33.6 | – | 44.1 | > 100 | > 100 | > 100 | > 100 | > 100 | – | – | – | – |
| Nc1ncnc2c1sc(=S)n2-c1ccccc1 | – | > 100 | – | > 100 | – | > 100 | – | > 100 | – | > 100 | – | > 100 | > 100 | > 100 | > 100 | – | – | – | – |
| Nc1nc2c(c(-c3ccccc3Cl)n1)COC/C2=C\c1ccccc1Cl | – | 31.7 | – | 29.9 | – | 27.7 | – | – | – | 32 | 33 | 34.6 | 33.1 | 39 | 31.6 | – | – | – | – |
| Nc1ncnc2c1ncn2CCCC(c1ccccc1)P(=O)(O)O (stereo unspecified) | – | > 100 | – | > 100 | – | > 100 | – | > 100 | – | > 100 | – | – | > 100 | – | > 100 | – | – | – | – |
| Cn1cc(-c2nc(-c3c[nH]c4ccncc34)cs2)c2ccccc21 | 1.76 | 3.18 | – | – | 1.77 | 3.32 | 1.71 | 3.14 | 1.38 | 2.69 | 4.02 | – | – | – | – | 1.99 | – | – | – |
| O=C(NNS(=O)(=O)c1ccc(Br)cc1)c1ccc(Cl)cc1NC(=O)C12CC3CC(CC(C3)C1)C2 | – | 34.3 | – | 31.6 | – | 29.3 | – | – | – | 24.2 | 32.5 | 73.9 | 40 | 23.8 | 22.7 | – | – | – | – |
| CC(C(=O)NCCNC(=O)CCC(=O)N(C)O)C(=O)NCCNC(=O)CCC(=O)N(C)O | – | > 100 | – | > 100 | – | > 100 | – | > 100 | – | > 100 | > 100 | > 100 | – | > 100 | > 100 | – | – | – | – |
| COC(=O)[C@H]1[C@@H](O)[C@@]2(O)c3c(OC)cc(OC)cc3O[C@@]2(c2ccc3c(c2)OCO3)[C@@H]1c1ccccc1 | – | 0.206 | – | – | – | 0.143 | – | – | – | 0.0223 | 0.241 | 0.0482 | 0.0944 | > 10.1 | > 50 | – | – | – | – |
| O=C(/C=C/c1ccc2c(c1)OCO2)NCCc1ccco1 | – | > 100 | – | > 100 | – | > 100 | – | > 100 | – | > 100 | > 100 | > 100 | – | > 100 | > 100 | – | – | – | – |
| CCCCCCCCCCCCCCCCNCC(O)CN (stereo unspecified) | – | 19.7 | – | 8.16 | – | 6.93 | – | 25.8 | – | 25.3 | 4.72 | 4.87 | – | 12.1 | 6.26 | – | – | – | – |
| Cc1nc2ccccc2c(=O)n1NC(=O)c1ccccc1[N+](=O)[O-] | – | > 100 | – | – | – | > 100 | – | > 100 | – | > 100 | > 100 | > 100 | > 100 | > 100 | > 100 | – | – | – | – |
| O=C1CCCCC/C1=C\c1cccc([N+](=O)[O-])c1 | – | > 100 | – | 93.1 | – | 50.4 | – | > 100 | – | 80.1 | 95.5 | 83.5 | > 100 | – | > 100 | – | – | – | – |
| N#C/C=c1/c2ccccc2n2nc3ccccc3c12 | – | > 100 | – | 58.6 | – | > 100 | – | > 100 | – | > 100 | > 100 | – | 19.8 | 31.5 | 30.9 | – | – | – | – |
| COc1cc(N)c2[nH]c3c(C)ccc(C)c3c2c1 | – | > 100 | – | – | – | > 100 | – | > 100 | – | > 100 | – | > 100 | > 100 | > 100 | – | – | – | – | – |
| COC1=CC(=O)N(C(=O)[C@@H](OC(=O)[C@@H](C)N(C)C(=O)[C@@H]2CCCN2C(=O)[C@H](C(C)C)N(C)C(=O)[C@@H](NC(=O)[C@H](C(C)C)N(Cc2ccccc2)Cc2ccccc2)C(C)C)C(C)C)[C@H]1Cc1ccccc1 (Bn2Val-V[NMeV]P[dNMeA]-X28) | – | > 100 | – | > 100 | – | > 100 | – | > 100 | – | 22.3 | > 100 | – | > 100 | > 100 | > 100 | – | – | – | – |
| COC(=O)[C@@H]1[C@H](O)CCC2=C(CC(=O)c3ccoc3)[C@H](C)CC[C@]21C | – | > 50 | – | > 50 | – | > 50 | – | > 50 | – | > 50 | > 50 | – | > 50 | > 50 | > 50 | – | – | – | – |
| C=CCNc1nc(O)c(/C=C2\C=Nc3ncccc32)s1 | 2.66 | > 100 | 2.07 | 4.25 | 2.5 | > 100 | 2.52 | 9.14 | 3.36 | > 100 | > 100 | 7.95 | – | 24.9 | 4.35 | 5.05 | 2.64 | 3.03 | 2.07 |
| COc1ccc(C(=O)c2c(-c3ccccc3NC(=O)C(F)(F)F)[nH]c3ccccc23)cc1 | – | 25.5 | – | – | – | 25.5 | – | 27.6 | – | 19.4 | 28.8 | 10.6 | – | 19.2 | 7.17 | – | – | – | – |
| CC(=O)Oc1c2c(c(OC(C)=O)c3c1n(C(C)=O)c1ccccc1n3C(C)=O)n(C(C)=O)c1ccccc1n2C(C)=O | – | – | – | 26.8 | – | 28.9 | – | 16.8 | – | 25.2 | – | 8.7 | – | 40.5 | 29.5 | – | – | – | – |
| COc1ccc(C2S/C(=C\c3cccc(OC)c3)C(=O)N2NC(=O)Cc2ccccc2)cc1 (stereo unspecified) | – | > 100 | – | > 100 | – | > 100 | – | > 100 | – | > 100 | – | > 100 | > 100 | > 100 | > 100 | – | – | – | – |
| COC(=O)CCCC1(CCCC(=O)OC)CCCCCCCCC(CCCC(=O)OC)(CCCC(=O)OC)C(=O)C1=O | – | > 100 | – | 69.9 | – | > 100 | – | > 100 | – | 0.3 | > 100 | – | 33.5 | 54.7 | 40.7 | – | – | – | – |
